The values below come from patent publication US11412735B2, “Pre-emergent herbicide” (W. Neudorff GMBH KG, priority 2016, dated 2022).

Holding throughout (assay type): in vivo
For data set [1], the system named is dandelion seeds. The experiment in a line: Greenhouse dandelion seed germination test, application on soil (Examples 1-3). The note with it: soil pots; for Weed emergence suppression assay score: untreated = 0%. An excerpt:
(§1) The “weed emergence suppression assay” comprises:
(§2) applying an amount of a composition or the components thereof to a target area comprising pre-emergent undesired vegetation; and following application (e.g. after at least 7, 14 or 21 days from application) assessing emergence visually using a percentage rating scale from 100% (no undesired vegetation emergence) to 0% (complete undesired vegetation emergence=untreated control).
(§3) Dry FeHEDTA (micro-granular; Dissolvine H—Fe-13) was purchased from the company AkzoNobel. Corn gluten meal (Amaizeingly Green; N—P—K 10-0-0) and the mustard seed meal (Pescadero Gold; N—P—K 4.5-1.5-1.15) were purchased from AgGlobal (155, Gordon Baker Road, Suite 402,Toronto, ON M2H 3N7, Canada. www.buyagglobal.com) and Farm Fuel Inc (275 Coward Rd, Watsonville, Calif. 95076, USA. www.farmfuelinc.com), respectively. The corn gluten meal and mustard seed meal arrived in pellet form, but were ground and sieved through a mesh (sieve opening size 850 μm) before use to obtain a particle size of ≤850 μm. FeHEDTA (4.8%) was mixed with 1% of drying agent (MICRO-CEL® E) and then mixed with fertilizer seed meal (corn gluten meal or mustard seed meal) (94.2%) and blended thoroughly until the formulation became homogeneous. The application rate was 100 g/m^2 for the combined treatment (94.2 g/m^2 for FSM and 4.8 g/m^2 for FeHEDTA), 4.8 g/m^2 for FeHEDTA treatment and 100 g/m^2 for FSM treatment. In the formulation, the respective FSM was simply blended with transition metal chelate and with other ingredients if applicable. Samples were usually prepared within 48 hours of treatment. All tests were done in the greenhouse.
Pots 4″ in size were filled with wetted potting media and dandelion seeds were spread (0.2 g of seeds/four pots in examples 1 and 2 and 0.25 g/4 pots in example 3) evenly over each pot and lightly watered 3 hrs before treating. Seeded pots were covered with a thin layer of potting soil and treatments were applied after seeding (e.g. just after seeding). Each treatment consisted with 4 replicates. All treatments were lightly watered as needed until the seedlings emerged. Number of emerged seedlings in each pot was recorded 7 or 21 days after treatment application.

Data set [2] relates to dandelion seeds. The experiment in a line: Greenhouse dandelion seed germination (in grass) test (Example 4). As to conditions: dandelion seeded in grass pots.
Excerpt: as §1, §2
Dry FeHEDTA (micro-granular; Dissolvine H—Fe-13) was purchased from the company AkzoNobel. Corn gluten meal (Amaizeingly Green; N—P—K 10-0-0) and the mustard seed meal (Pescadero Gold; N—P—K 4.5-1.5-1.15) were purchased from AgGlobal (155, Gordon Baker Road, Suite 402,Toronto, ON M2H 3N7, Canada. www.buyagglobal.com) and Farm Fuel Inc (275 Coward Rd, Watsonville, Calif. 95076, USA. www.farmfuelinc.com), respectively. The corn gluten meal and mustard seed meal arrived in pellet form, but were ground and sieved through a mesh (sieve opening size 850 μm) before use to obtain a particle size of ≤850 μm. […]
(§4) Pots 4″ in size were filled with wetted potting media, grass (lawn) seeds (perennial rye grass) were spread until soil was completely covered with grass seeds (5 g/pot) and kept for 1 month until grass was grown. […] Number of emerged seedlings in each pot was recorded 14 days after application.

In data set [3] the test system is grass (lawn), perennial rye grass. Put plainly: Grass phytotoxicity / selective herbicide assay (Example 4).
Excerpt: The “selective herbicide assay” comprises:
applying an amount of a composition (or the components thereof) to a target area comprising pre-emergent undesired vegetation and desired vegetation; and
following application (e.g. after at least 7, 14 or 21 days from application) assessing separately undesired vegetation emergence and desired vegetation survival visually using a percentage rating scale from 0% (no undesired vegetation emergence/no desired vegetation survival) to 100% (complete undesired vegetation emergence/complete desired vegetation survival).
as §3, §4

As to `O=C([O-])CN(CCO)CCN(CC(=O)[O-])CC(=O)[O-].[Fe+3]` [Dry FeHEDTA (B), FeHEDTA], the “Seedling emergence: No of seedlings (21 days after application)” value in data set [1] (Example 1, 21 days after application, 100 g/m^2 combined or FSM, 4.8 g/m^2 FeHEDTA, untreated 42) was determined as 44; in data set [1] (Example 2, 21 days after application, 100 g/m^2 combined or FSM, 4.8 g/m^2 FeHEDTA, untreated 60), 76. Moreover, the “Weed emergence suppression assay score” value in data set [1] (Example 1, 21 days after application) was −4.76%; in data set [1] (Example 2, 21 days after application) it was −26.66%; in data set [1] (Example 3, 7 days after application), 55.07%; in data set [2] (14 days after application, untreated = 0%), 2.63%. The “Seedling emergence: No of seedlings 7 days after application” value in data set [1] (Example 3, 7 days after application, 100 g/m^2 combined or FSM, 4.8 g/m^2 FeHEDTA, untreated 134) is reported as 59. The “Weed (dandelion) Seedling emergence: No of dandelion seedlings (14 days after application)” value in data set [2] (untreated 76) stood at 74. For the same molecule, the “Selective herbicide assay score” value in data set [3] (score on desired vegetation (grass)) is 0%. Also, in data set [3] (visual rating of grass damage, 7 days after treatment), the “Grass phytotoxicty, 7 days after treatment” value is 0. The “Grass phytotoxicty, 14 days after treatment” value in data set [3] (visual rating of grass damage, 14 days after treatment) came out at 0.
